In US7534590B2, “Method for producing monatin” (AJINOMOTO Co., Inc., priority 2003, dated 2009):
Entries after “also recorded” stand apart in the source; their conditions may differ.

Experiments:
[1] = cited from earlier work; for sweetness potency: relative to sucrose
[2] = pH stability of IHOG in amination reaction solution (without microbial cells); format: physicochemical
Description: [I] pH Stability of IHOG in Amination Reaction Solution
In order to examine the stability of IHOG in the IHOG amination solution, change of IHOG amounts with time in an IHOG amination solution was measured without adding the microbial cells. A test tube containing 1 mL of the reaction solution composed of 100 mM potassium phosphate buffer (pH 8.3), 300 mM (±)-IHOG, 600 mM DL-Ala and 1 mM pyridoxal-5′-phosphate was shaken at 37° C. for 40 hours, to perform the reaction. […] This is presumed to be attributed to the decomposition of IHOG into indole-3-pyruvic acid and pyruvic acid and the cyclization of IHOG.

[3] = pH stability of IHOG in buffer; format: physicochemical; conditions: 0.54 mM IHOG, 40 mM potassium phosphate buffer, 35° C.
Description: [II] pH Stability of IHOG in Buffer
The survival rate of IHOG (0.54 mM) was measured in 40 mM potassium phosphate buffer at different pH. The storage temperature was adjusted to 35° C.

[4] = stability in strongly acidic or strongly alkaline solution to be treated; format: physicochemical; conditions: for stability in strongly acidic solution: strongly acidic region
Description: The value of pH in the solution to be treated may be 2 to 12, more preferably 7 to 11 and particularly preferably 8 to 9.
When the solution to be treated is strongly acidic or alkaline and contains IHOG, IHOG is decomposed and can not be recovered. […] This cyclization is an irreversible reaction, and therefore, it is difficult to regenerate the cyclized IHOG to reuse for the monatin production.

NC(CC(O)(Cc1c[nH]c2ccccc12)C(=O)O)C(=O)O (single isomer, unassigned) [(2S, 4S)-isomer]
sweetness potency [1]: hundreds of times to thousands of times stronger than sucrose

N[C@@H](C[C@](O)(Cc1c[nH]c2ccccc12)C(=O)O)C(=O)O (single isomer, unassigned) [(2S, 4R)-isomer]
sweetness potency [1]: hundreds of times to thousands of times stronger than sucrose

O=C(O)C(=O)CC(O)(Cc1c[nH]c2ccccc12)C(=O)O (racemic) [IHOG, 4-(indol-3-ylmethyl)-4-hydroxy-2-oxoglutaric acid]
Survival rate of IHOG ([2]; 100 mM potassium phosphate buffer pH 8.3, 300 mM (±)-IHOG, 600 mM DL-Ala, 1 mM pyridoxal-5'-phosphate, 37° C., after 16 hours): 81%
Survival rate of IHOG ([2]; same amination solution pH 8.3, 37° C., after 24 hours): 70%
Survival rate of IHOG ([2]; same amination solution pH 8.3, 37° C., after 40 hours): 57%
Survival rate of IHOG ([3]; pH 7, 2 hr): 97.4%
Survival rate of IHOG ([3]; pH 7, 7 hr): 90.0%
Survival rate of IHOG ([3]; pH 7, 24 hr): 68.4%
Survival rate of IHOG ([3]; pH 7, 48 hr): 45.6%
Survival rate of IHOG ([3]; pH 8, 2 hr): 100.6%
Survival rate of IHOG ([3]; pH 8, 7 hr): 100.1%
Survival rate of IHOG ([3]; pH 8, 24 hr): 96.4%
Survival rate of IHOG ([3]; pH 8, 48 hr): 89.6%
Survival rate of IHOG ([3]; pH 9, 2 hr): 100.6%
Survival rate of IHOG ([3]; pH 9, 7 hr): 101.1%
Survival rate of IHOG ([3]; pH 9, 24 hr): 99.0%
Survival rate of IHOG ([3]; pH 9, 48 hr): 94.4%
Survival rate of IHOG ([3]; pH 10, 2 hr): 97.0%
Survival rate of IHOG ([3]; pH 10, 7 hr): 96.8%
Survival rate of IHOG ([3]; pH 10, 24 hr): 94.2%
Survival rate of IHOG ([3]; pH 10, 48 hr): 90.8%
Survival rate of IHOG ([3]; pH 11, 2 hr): 95.6%
Survival rate of IHOG ([3]; pH 11, 7 hr): 90.7%
Survival rate of IHOG ([3]; pH 11, 24 hr): 74.8%
Survival rate of IHOG ([3]; pH 11, 48 hr): 59.3%
stability in strongly acidic solution [4]: easily cyclized
stability in strongly alkaline solution ([4]; strongly alkaline solution): easily decomposed into indole-3-pyruvic acid and pyruvic acid spontaneously

N[C@H](C[C@@](O)(Cc1c[nH]c2ccccc12)C(=O)O)C(=O)O (single isomer, unassigned) [(2R, 4S)-isomer]
sweetness potency [1]: hundreds of times to thousands of times stronger than sucrose

N[C@H](C[C@](O)(Cc1c[nH]c2ccccc12)C(=O)O)C(=O)O (single isomer, unassigned) [(2R, 4R)-isomer]
sweetness rank among four optical isomers of monatin ([1]; comparison of the monatin isomers, listed as (2R, 4R)-monatin): the isomer having the highest sweetness among four optical isomers of monatin; also recorded: highest sweetness potency among monatin isomers
sweetness potency [1]: hundreds of times to thousands of times stronger than sucrose

NC(CC(O)(Cc1c[nH]c2ccccc12)C(=O)O)C(=O)O (centres unmarked) [Monatin]
stability in strongly acidic solution [4]: partially decomposed into lactam and lactone
sweetness potency [1]: dozens to thousands of times stronger than that of sucrose
